In US20260217711A1, “TRIAZOLOPYRIDINYL ETHER LINKED COMPOUNDS AS KINASE INHIBITORS” (Bristol-Myers Squibb Company, priority 2023, published 2026):

The molecules below were run on MLKL phosphorylation (pMLKL) in HT29-L23 cells (assay: MLKL Phosphorylation High-Content Assay). Settings: Homo sapiens, 6 h, necroptosis induced with human TNFα, SMAC mimetic and Z-VAD, read-out: LE pMLKL HC IC50.
Format: cell-based
Protocol: Following 6 h incubation at 37° C. […] MLKL phosphorylation was detected using anti-MLKL (phospho […]) antibody (Abcam #ab187091) (1:1000 dilution in Blocking Buffer [PBS supplemented with 0.1% BSA]) with ON incubation at 4° C. […] Following another three cycles of washes in PBS, the microplates were sealed, and cellular images were acquired in the Cellomics ArrayScan VTI high-content imager equipped with an X1 camera. […] The image sets were analyzed using the Compartmental Analysis Bioapplication software (Cellomics). The level of MLKL phosphorylation was quantified as […].

In order of falling IC50:
1. CC(O)(c1ccc(F)cc1)C(F)(F)CCOc1cccc(-c2ccn3nc(N)nc3c2)c1C(F)F (single isomer, unassigned) [Example 23, 5-(3-(2-amino-[1,2,4]triazolo[1,5-a]pyridin-7-yl)-2-(difluoromethyl)phenoxy)-3,3-difluoro-2-(4-fluorophenyl)pentan-2-ol]  6000 nM
2. CC(C)CC(O)C(F)(F)CCOc1cccc(-c2ccn3nc(N)nc3c2)c1F (single isomer, unassigned) [Example 6, 1-(3-(2-amino-[1,2,4]triazolo[1,5-a]pyridin-7-yl)-2-fluorophenoxy)-3,3-difluoro-6-methylheptan-4-ol]  80 nM
3. CC(O)(c1cccnc1)C(F)(F)CCOc1c(F)ccc(-c2ccn3nc(N)nc3c2)c1F (single isomer, unassigned) [Example 36, 5-(3-(2-amino-[1,2,4]triazolo[1,5-a]pyridin-7-yl)-2,6-difluorophenoxy)-3,3-difluoro-2-(pyridin-3-yl)pentan-2-ol]  5 nM
4. Nc1nc2cc(-c3cccc(OCCC(F)(F)C(O)c4ccccc4)c3F)ccn2n1 (racemic) [Example 69, 4-(3-(2-amino-[1,2,4]triazolo[1,5-a]pyridin-7-yl)-2-fluorophenoxy)-2,2-difluoro-1-phenylbutan-1-ol]  3 nM
5. Nc1nc2cc(-c3cccc(OCCC(F)(F)C(O)c4ccc(Cl)cc4)c3F)ccn2n1 (racemic) [Example 70, 4-(3-(2-amino-[1,2,4]triazolo[1,5-a]pyridin-7-yl)-2-fluorophenoxy)-1-(4-chlorophenyl)-2,2-difluorobutan-1-ol]  1 nM
6. COc1ccc(OCCC(F)(F)C(C)(O)c2ccc(F)cc2)c(F)c1-c1ccn2nc(N)nc2c1 (racemic) [Example 22, 5-(3-(2-amino-[1,2,4]triazolo[1,5-a]pyridin-7-yl)-2-fluoro-4-methoxyphenoxy)-3,3-difluoro-2-(4-fluorophenyl)pentan-2-ol]  0.9 nM
7. CC(O)(c1ccc(F)cc1)C(F)(F)CCOc1cccc(-c2ccn3nc(N)nc3c2)c1F (racemic) [Example 73, 5-(3-(2-amino-[1,2,4]triazolo[1,5-a]pyridin-7-yl)-2-fluorophenoxy)-3,3-difluoro-2-(4-fluorophenyl)pentan-2-ol]  0.5 nM
8. Cc1ccc(-c2ccn3nc(N)nc3c2)c(F)c1OCCC(F)(F)C(O)c1ccc(F)cc1 (racemic) [Example 66, 4-(3-(2-amino-[1,2,4]triazolo[1,5-a]pyridin-7-yl)-2-fluoro-6-methylphenoxy)-2,2-difluoro-1-(4-fluorophenyl)butan-1-ol]  0.3 nM
9. CC(O)(c1ccc(F)cc1)C(F)(F)CCOc1cnc(Cl)c(-c2ccn3nc(N)nc3c2)n1 (racemic) [Example 81, 5-((6-(2-amino-[1,2,4]triazolo[1,5-a]pyridin-7-yl)-5-chloropyrazin-2-yl)oxy)-3,3-difluoro-2-(4-fluorophenyl)pentan-2-ol]  0.2 nM

Same assay, conditions: necroptosis induced with human TNFα, SMAC mimetic and Z-VAD, 6 h, read-out: LE pMLKL HC IC50

In order of rising IC50:
1. CC(O)(c1ccc(F)cc1)C(F)(F)CCOc1ccc(F)c(-c2ccn3nc(N)nc3c2)c1F (single isomer, unassigned) [Example 9, 5-(3-(2-amino-[1,2,4]triazolo[1,5-a]pyridin-7-yl)-2,4-difluorophenoxy)-3,3-difluoro-2-(4-fluorophenyl)pentan-2-ol]  0.1 nM
2. CC(O)(c1ccc(F)cc1)C(F)(F)CCOc1cc(F)cc(-c2ccn3nc(N)nc3c2)c1F (single isomer, unassigned) [Example 11, 5-(3-(2-amino-[1,2,4]triazolo[1,5-a]pyridin-7-yl)-2,5-difluorophenoxy)-3,3-difluoro-2-(4-fluorophenyl)pentan-2-ol]  0.2 nM
3. CC(O)(c1ccc(F)cc1)C(F)(F)CCOc1c(C(F)F)ccc(-c2ccn3nc(N)nc3c2)c1F (single isomer, unassigned) [Example 26, 5-(3-(2-amino-[1,2,4]triazolo[1,5-a]pyridin-7-yl)-6-(difluoromethyl)-2-fluorophenoxy)-3,3-difluoro-2-(4-fluorophenyl)pentan-2-ol]  0.3 nM
4. COc1ccc(-c2ccn3nc(N)nc3c2)c(F)c1OCCC(F)(F)C(C)(O)c1ccc(F)cc1 (single isomer, unassigned) [Example 19, 5-(3-(2-amino-[1,2,4]triazolo[1,5-a]pyridin-7-yl)-2-fluoro-6-methoxyphenoxy)-3,3-difluoro-2-(4-fluorophenyl)pentan-2-ol]  0.4 nM
5. CC(O)(c1ccc(F)cc1)C(F)(F)CCOc1cc(F)cc(-c2ccn3nc(N)nc3c2)c1F (single isomer, unassigned) [Example 10, 5-(3-(2-amino-[1,2,4]triazolo[1,5-a]pyridin-7-yl)-2,5-difluorophenoxy)-3,3-difluoro-2-(4-fluorophenyl)pentan-2-ol]  1 nM
6. [2H]C([2H])(CC(F)(F)C(C)(O)c1ccc(F)cc1)Oc1cccc(-c2ccn3nc(N)nc3c2)c1F (single isomer, unassigned) [Example 12, 5-(3-(2-amino-[1,2,4]triazolo[1,5-a]pyridin-7-yl)-2-fluorophenoxy)-3,3-difluoro-2-(4-fluorophenyl)pentan-5,5-d2-2-ol]  1 nM
7. COc1cc(F)c(OCCC(F)(F)C(C)(O)c2ccc(F)cc2)c(F)c1-c1ccn2nc(N)nc2c1 (single isomer, unassigned) [Example 21, 5-(3-(2-amino-[1,2,4]triazolo[1,5-a]pyridin-7-yl)-2,6-difluoro-4-methoxyphenoxy)-3,3-difluoro-2-(4-fluorophenyl)pentan-2-ol]  1.1 nM
8. CC(O)(c1ccc(F)cc1)C(F)(F)CCOc1c(C(F)F)ccc(-c2ccn3nc(N)nc3c2)c1F (single isomer, unassigned) [Example 25, 5-(3-(2-amino-[1,2,4]triazolo[1,5-a]pyridin-7-yl)-6-(difluoromethyl)-2-fluorophenoxy)-3,3-difluoro-2-(4-fluorophenyl)pentan-2-ol]  1.5 nM
9. CC(O)(c1ccc(F)cc1)C(F)(F)CCOc1ccc(F)c(-c2ccn3nc(N)nc3c2)c1F (single isomer, unassigned) [Example 8, 5-(3-(2-amino-[1,2,4]triazolo[1,5-a]pyridin-7-yl)-2,4-difluorophenoxy)-3,3-difluoro-2-(4-fluorophenyl)pentan-2-ol]  9 nM
10. CC(N)(c1ccc(F)cc1)C(F)(F)CCOc1c(F)ccc(-c2ccn3nc(N)nc3c2)c1F (single isomer, unassigned) [Example 16, 7-(3-((4-amino-3,3-difluoro-4-(4-fluorophenyl)pentyl)oxy)-2,4-difluorophenyl)-[1,2,4]triazolo[1,5-a]pyridin-2-amine]  20 nM
11. [2H]C([2H])(CC(F)(F)C(C)(O)c1ccc(F)cc1)Oc1c(F)ccc(-c2ccn3nc(N)nc3c2)c1F (single isomer, unassigned) [Example 14, 5-(3-(2-amino-[1,2,4]triazolo[1,5-a]pyridin-7-yl)-2,6-difluorophenoxy)-3,3-difluoro-2-(4-fluorophenyl)pentan-5,5-d2-2-ol]  30 nM
12. CC(O)(c1ccc(F)cn1)C(F)(F)CCOc1c(Cl)ccc(-c2ccn3nc(N)nc3c2)c1F (single isomer, unassigned) [Example 32, 5-(3-(2-amino-[1,2,4]triazolo[1,5-a]pyridin-7-yl)-6-chloro-2-fluorophenoxy)-3,3-difluoro-2-(5-fluoropyridin-2-yl)pentan-2-ol]  30 nM
13. CC(N)(c1ccc(F)cc1)C(F)(F)CCOc1c(F)ccc(-c2ccn3nc(N)nc3c2)c1F (single isomer, unassigned) [Example 17, 7-(3-((4-amino-3,3-difluoro-4-(4-fluorophenyl)pentyl)oxy)-2,4-difluorophenyl)-[1,2,4]triazolo[1,5-a]pyridin-2-amine]  60 nM
14. COc1ccc(-c2ccn3nc(N)nc3c2)c(F)c1OCCC(F)(F)C(C)(O)c1ccc(F)cc1 (single isomer, unassigned) [Example 18, 5-(3-(2-amino-[1,2,4]triazolo[1,5-a]pyridin-7-yl)-2-fluoro-6-methoxyphenoxy)-3,3-difluoro-2-(4-fluorophenyl)pentan-2-ol]  80 nM
15. Nc1nc2cc(-c3ccc(F)c(OCCC(F)(F)C(O)c4ccc(F)cn4)c3F)ccn2n1 (single isomer, unassigned) [Example 33, 4-(3-(2-amino-[1,2,4]triazolo[1,5-a]pyridin-7-yl)-2,6-difluorophenoxy)-2,2-difluoro-1-(5-fluoropyridin-2-yl)butan-1-ol]  85 nM
16. COc1cc(F)c(OCCC(F)(F)C(C)(O)c2ccc(F)cc2)c(F)c1-c1ccn2nc(N)nc2c1 (single isomer, unassigned) [Example 20, 5-(3-(2-amino-[1,2,4]triazolo[1,5-a]pyridin-7-yl)-2,6-difluoro-4-methoxyphenoxy)-3,3-difluoro-2-(4-fluorophenyl)pentan-2-ol]  110 nM
17. CC(O)(c1ccc(F)cc1)C(F)(F)CCOc1c(Cl)ccc(-c2ccn3nc(N)nc3c2)c1F (single isomer, unassigned) [Example 5, 5-(3-(2-amino-[1,2,4]triazolo[1,5-a]pyridin-7-yl)-6-chloro-2-fluorophenoxy)-3,3-difluoro-2-(4-fluorophenyl)pentan-2-ol]  150 nM
18. CC(C)CC(O)C(F)(F)CCOc1cccc(-c2ccn3nc(N)nc3c2)c1F (single isomer, unassigned) [Example 7, 1-(3-(2-amino-[1,2,4]triazolo[1,5-a]pyridin-7-yl)-2-fluorophenoxy)-3,3-difluoro-6-methylheptan-4-ol]  160 nM
19. CC(O)(c1ccc(F)cc1)C(F)(F)CCOc1cccc(-c2ccn3nc(N)nc3c2)c1C(F)F (single isomer, unassigned) [Example 24, 5-(3-(2-amino-[1,2,4]triazolo[1,5-a]pyridin-7-yl)-2-(difluoromethyl)phenoxy)-3,3-difluoro-2-(4-fluorophenyl)pentan-2-ol]  6000 nM
